Laboratory results published in US20240083857A1, “2-Methyl-Quinazolines” (Bayer Pharma Aktiengesellschaft, priority 2017, published 2024).
pIC50: −log10 of the molar value. Counter-ions that a name gives are not always drawn.

Legend:
[1] = target: Epidermal Growth Factor Receptor (EGFR) (Homo sapiens (Human), UniProt P00533); experiment: EGFR kinase assay (TR-FRET); assay type: biochemical; details: values given in μM; read-out: EGFR kinase inhibition IC50
In short: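 EGFR purified from A431 cells was preincubated with compound 15 min at 22° C in pH 7.0 Hepes buffer with MgCl2, MnCl2 and vanadate before reaction with a biotinylated peptide. After EDTA stop, phosphopeptide was detected by TR-FRET (anti-phosphotyrosine Tb-cryptate, streptavidin-XL665) as the 665/620 nm emission ratio.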

[2] = target: human SOS1 (nucleotide exchange of K-Ras^G12C) (Homo sapiens, UniProt Q07889); experiment: Biochemical assay 2: K-Ras^G12C activation assay by hSOS1 at high GTP concentration (HTRF); details: high GTP; read-out: Assay 2 (KRAS-Activation by SOS high GTP) activity expressed as IC50

Chain of Epidermal Growth Factor Receptor (EGFR) (P00533 25-1210): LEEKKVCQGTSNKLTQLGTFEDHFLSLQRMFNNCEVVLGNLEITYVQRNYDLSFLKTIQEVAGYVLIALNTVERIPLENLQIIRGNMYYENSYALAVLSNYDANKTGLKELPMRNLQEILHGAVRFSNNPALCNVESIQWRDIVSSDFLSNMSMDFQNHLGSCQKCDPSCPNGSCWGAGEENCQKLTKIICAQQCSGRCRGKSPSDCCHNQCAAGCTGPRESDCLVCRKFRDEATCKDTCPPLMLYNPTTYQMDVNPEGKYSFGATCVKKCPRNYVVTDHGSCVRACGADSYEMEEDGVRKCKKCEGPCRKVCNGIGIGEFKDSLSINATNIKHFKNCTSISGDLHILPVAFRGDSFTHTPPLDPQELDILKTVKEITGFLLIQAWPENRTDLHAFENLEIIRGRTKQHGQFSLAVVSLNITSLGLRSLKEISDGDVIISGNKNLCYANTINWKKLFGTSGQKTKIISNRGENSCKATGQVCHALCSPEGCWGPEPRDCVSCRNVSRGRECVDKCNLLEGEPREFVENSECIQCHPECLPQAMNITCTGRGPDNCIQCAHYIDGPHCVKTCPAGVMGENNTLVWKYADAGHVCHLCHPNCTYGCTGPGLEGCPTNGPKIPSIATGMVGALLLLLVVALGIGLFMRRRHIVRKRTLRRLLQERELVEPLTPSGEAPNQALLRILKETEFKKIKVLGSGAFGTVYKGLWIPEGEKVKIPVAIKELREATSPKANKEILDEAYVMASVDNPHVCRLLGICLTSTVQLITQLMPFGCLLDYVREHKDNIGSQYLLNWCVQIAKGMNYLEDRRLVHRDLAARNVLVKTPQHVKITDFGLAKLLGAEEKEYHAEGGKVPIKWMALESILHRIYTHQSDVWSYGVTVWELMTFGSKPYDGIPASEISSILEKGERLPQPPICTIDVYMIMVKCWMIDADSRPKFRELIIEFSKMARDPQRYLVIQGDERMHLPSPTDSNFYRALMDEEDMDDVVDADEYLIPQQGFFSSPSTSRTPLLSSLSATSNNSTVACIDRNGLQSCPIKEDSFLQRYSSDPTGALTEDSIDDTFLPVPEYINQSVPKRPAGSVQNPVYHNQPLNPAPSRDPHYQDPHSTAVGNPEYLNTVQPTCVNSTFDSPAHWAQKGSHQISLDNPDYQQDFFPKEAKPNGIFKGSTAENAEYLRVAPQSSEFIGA

Question: With `COc1cc2nc(C)nc(NC(C)c3ccc(-c4cc(C)n(C)c4C#N)s3)c2cc1OC` (stereo not shown) [Example 286, 3-(5-{1-[(6,7-dimethoxy-2-methylquinazolin-4-yl)amino]ethyl}thiophen-2-yl)-1,5-dimethyl-1H-pyrrole-2-carbonitrile] as the compound, how does the IC50 [1] read?
Answer: > 20 µM

Question: And the pIC50 [2]?
Answer: 4.76

Question: Which IC50 [1] does the source give for `COc1cc2nc(C)nc(NC(C)c3ccc(-c4cscc4C#N)s3)c2cc1OC` (stereo not shown) [Example 287, 5-{1-[(6,7-dimethoxy-2-methylquinazolin-4-yl)amino]ethyl}-2,3′-bithiophene-4′-carbonitrile] here?
Answer: > 20 µM

Question: And the pIC50 [2]?
Answer: 5.73

Question: With `CCN(CC)Cc1ccccc1-c1ccc(C(C)Nc2nc(C)nc3cc(OC)c(OC)cc23)s1` (stereo not shown) [Example 288, N-[1-(5-{2-[(diethylamino)methyl]phenyl}thiophen-2-yl)ethyl]-6,7-dimethoxy-2-methylquinazolin-4-amine] as the compound, how does the IC50 [1] read?
Answer: > 20 µM

Question: And the pIC50 [2]?
Answer: 6.85

Question: `COc1cc2nc(C)nc(NC(C)c3ccc(-c4ccccc4CN4CCCC(C(N)=O)C4)s3)c2cc1OC` (stereo not shown) [Example 290, 1-[2-(5-{1-[(6,7-dimethoxy-2-methylquinazolin-4-yl)amino]ethyl}thiophen-2-yl)benzyl]piperidine-3-carboxamide] was tested. Which IC50 [1] did it give?
Answer: > 20 µM

Question: And the pIC50 [2]?
Answer: 6.94

Question: What does the source list for `COc1cc2nc(C)nc(NC(C)c3ccc(-c4ccccc4CN(C)CC(F)F)s3)c2cc1OC` (stereo not shown) [Example 291, N-{1-[5-(2-{[(2,2-difluoroethyl)(methyl)amino]methyl}phenyl)thiophen-2-yl]ethyl}-6,7-dimethoxy-2-methylquinazolin-4-amine]?
Answer: IC50 [1]: > 20 µM; pIC50 [2]: 5.88

Question: With `COc1cc2nc(C)nc(NC(C)c3ccc(-c4cc(Cl)ccc4CN)s3)c2cc1OC` (stereo not shown) [Example 292, N-[1-{5-[2-(aminomethyl)-5-chlorophenyl]thiophen-2-yl}ethyl]-6,7-dimethoxy-2-methylquinazolin-4-amine] as the compound, how does the IC50 [1] read?
Answer: > 20 µM

Question: What about the pIC50 [2] of the same compound?
Answer: 7.41

Question: What does the source list for `COc1cc2nc(C)nc(NC(C)c3ccc(-c4ccc(F)cc4CNC(=O)c4ncc[nH]4)s3)c2cc1OC` (stereo not shown) [Example 293, N-[2-(5-{1-[(6,7-dimethoxy-2-methylquinazolin-4-yl)amino]ethyl}thiophen-2-yl)-5-fluorobenzyl]-1H-imidazole-2-carboxamide]?
Answer: IC50 [1]: > 20 µM; pIC50 [2]: 5.41

Question: What does the source list for `COc1cc2nc(C)nc(NC(C)c3ccc(-c4ccc(F)cc4CNC(=O)c4cnc[nH]4)s3)c2cc1OC` (stereo not shown) [Example 294, N-[2-(5-{1-[(6,7-dimethoxy-2-methylquinazolin-4-yl)amino]ethyl}thiophen-2-yl)-5-fluorobenzyl]-1H-imidazole-5-carboxamide]?
Answer: IC50 [1]: > 20 µM; pIC50 [2]: 5.41

Question: What does the source list for `COc1cc2nc(C)nc(NC(C)c3ccc(-c4ccc(F)cc4CNC(=O)CNCC(F)(F)F)s3)c2cc1OC` (stereo not shown) [Example 295, N-[2-(5-{1-[(6,7-dimethoxy-2-methylquinazolin-4-yl)amino]ethyl}thiophen-2-yl)-5-fluorobenzyl]-N^2-(2,2,2-trifluoroethyl)glycinamide]?
Answer: IC50 [1]: > 20 µM; pIC50 [2]: 5.83

Question: With `COc1cc2nc(C)nc(NC(C)c3ccc(-c4ccccc4CNCCO)s3)c2cc1OC` (stereo not shown) [Example 297, 2-{[2-(5-{1-[(6,7-dimethoxy-2-methylquinazolin-4-yl)amino]ethyl}thiophen-2-yl)benzyl]amino}ethanol] as the compound, how does the IC50 [1] read?
Answer: > 20 µM

Question: What about the pIC50 [2] of the same compound?
Answer: 7.24

Question: For `COc1cc2nc(C)nc(NC(C)c3ccc(-c4ccccc4CN(C)CCO)s3)c2cc1OC` (stereo not shown) [Example 298, 2-{[2-(5-{1-[(6,7-dimethoxy-2-methylquinazolin-4-yl)amino]ethyl}thiophen-2-yl)benzyl](methyl)amino}ethanol], which IC50 [1] is on record?
Answer: > 20 µM

Question: What about the pIC50 [2] of the same compound?
Answer: 7.31

Question: Which results are given for `COc1cc2nc(C)nc(NC(C)c3ccc(-c4ccc(F)cc4CNC(=O)CNc4ccccc4)s3)c2cc1OC` (stereo not shown) [Example 299, N-[2-(5-{1-[(6,7-dimethoxy-2-methylquinazolin-4-yl)amino]ethyl}thiophen-2-yl)-5-fluorobenzyl]-N^2-phenylglycinamide]?
Answer: IC50 [1]: > 20 µM; pIC50 [2]: 5.91

Question: What does the source list for `COc1cc2nc(C)nc(NC(C)c3ccc(-c4ccccc4CNCC(F)(F)F)s3)c2cc1OC` (stereo not shown) [Example 300, 6,7-di methoxy-2-methyl-N-{1-[5-(2-{[(2,2,2-trifluoroethyl)amino]methyl}phenyl)thiophen-2-yl]ethyl}quinazolin-4-amine]?
Answer: IC50 [1]: > 20 µM; pIC50 [2]: 5.51

Question: How did the IC50 [1] turn out when `COc1cc2nc(C)nc(NC(C)c3ccc(-c4ccccc4CNc4ccccn4)s3)c2cc1OC` (stereo not shown) [Example 301, 6,7-di methoxy-2-methyl-N-[1-(5-{2-[(pyridin-2-ylamino)methyl]phenyl}thiophen-2-yl)ethyl]quinazolin-4-amine] was run?
Answer: > 20 µM

Question: What about the pIC50 [2] of the same compound?
Answer: 6.03

Question: With `COc1cc2nc(C)nc(NC(C)c3ccc(-c4ccccc4CNc4cc[nH]n4)s3)c2cc1OC` (stereo not shown) [Example 302, 6,7-dimethoxy-2-methyl-N-[1-(5-{2-[(1H-pyrazol-3-ylamino)methyl]phenyl}thiophen-2-yl)ethyl]quinazolin-4-amine] as the compound, how does the IC50 [1] read?
Answer: > 20 µM

Question: What about the pIC50 [2] of the same compound?
Answer: 5.90

Question: With `COc1cc2nc(C)nc(NC(C)c3ccc(-c4ccccc4CNCC(=O)N4CCc5ccccc5C4)s3)c2cc1OC` (stereo not shown) [Example 303, 1-(3,4-dihydroisoquinolin-2(1H)-yl)-2-{[2-(5-{1-[(6,7-dimethoxy-2-methylquinazolin-4-yl)amino]ethyl}thiophen-2-yl)benzyl]amino}ethanone] as the compound, how does the IC50 [1] read?
Answer: > 20 µM

Question: What about the pIC50 [2] of the same compound?
Answer: 6.08

Question: What does the source list for `COc1cc2nc(C)nc(NC(C)c3ccc(-c4ccc(F)cc4CNCc4nccn4C)s3)c2cc1OC` (stereo not shown) [Example 304, N-[1-{5-[4-fluoro-2-({[(1-methyl-1H-imidazol-2-yl)methyl]amino}methyl)phenyl]thiophen-2-yl}ethyl]-6,7-dimethoxy-2-methylquinazolin-4-amine]?
Answer: IC50 [1]: > 20 µM; pIC50 [2]: 6.33

Question: Which IC50 [1] does the source give for `COc1cc2nc(C)nc(NC(C)c3ccc(-c4ccccc4CN4CCNCC4)s3)c2cc1OC` (stereo not shown) [Example 305, 6,7-dimethoxy-2-methyl-N-[1-{5-[2-(piperazin-1-ylmethyl)phenyl]thiophen-2-yl}ethyl]quinazolin-4-amine hydrochloride] here?
Answer: > 20 µM

Question: What about the pIC50 [2] of the same compound?
Answer: 7.26

Question: What does the source list for `COc1cc2nc(C)nc(NC(C)c3ccc(-c4ccc(F)cc4CNC(C)=O)s3)c2cc1OC` (stereo not shown) [Example 307, N-[2-(5-{1-[(6,7-dimethoxy-2-methylquinazolin-4-yl)amino]ethyl}thiophen-2-yl)-5-fluorobenzyl]acetamide]?
Answer: IC50 [1]: > 20 µM; pIC50 [2]: 6.23

Question: `COc1cc2nc(C)nc(NC(C)c3ccc(-c4ccccc4CN4CCN(C)CC4)s3)c2cc1OC` (stereo not shown) [Example 308, 6,7-dimethoxy-2-methyl-N-[1-(5-{2-[(4-methylpiperazin-1-yl)methyl]phenyl}thiophen-2-yl)ethyl]quinazolin-4-amine] was tested. Which IC50 [1] did it give?
Answer: > 20 µM

Question: And the pIC50 [2]?
Answer: 6.64

Question: What does the source list for `COc1cc2nc(C)nc(NC(C)c3ccc(-c4ccccc4CN[C@H]4CCN(C)C4=O)s3)c2cc1OC` (stereo partly drawn) [Example 309, (3S)-{[2-(5-{1-[(6,7-dimethoxy-2-methylquinazolin-4-yl)amino]ethyl}thiophen-2-yl)benzyl]amino}-1-methylpyrrolidin-2-one]?
Answer: IC50 [1]: > 20 µM; pIC50 [2]: 6.16

Question: What does the source list for `COc1cc2nc(C)nc(NC(C)c3ccc(-c4ccc(F)cc4CNC(=O)c4cc[nH]n4)s3)c2cc1OC` (stereo not shown) [Example 310, N-[2-(5-{1-[(6,7-dimethoxy-2-methylquinazolin-4-yl)amino]ethyl}thiophen-2-yl)-5-fluorobenzyl]-1H-pyrazole-3-carboxamide]?
Answer: IC50 [1]: > 20 µM; pIC50 [2]: 5.87

Question: How did the IC50 [1] turn out when `COc1cc2nc(C)nc(NC(C)c3ccc(-c4ccccc4CN4CCOCC4)s3)c2cc1OC` (stereo not shown) [Example 311, 6,7-dimethoxy-2-methyl-N-[1-{5-[2-(morpholin-4-ylmethyl)phenyl]thiophen-2-yl}ethyl]quinazolin-4-amine] was run?
Answer: > 20 µM

Question: And the pIC50 [2]?
Answer: 6.29

Question: How did the IC50 [1] turn out when `COc1cc2nc(C)nc(NC(C)c3ccc(-c4ccccc4CN4CC(O)C4)s3)c2cc1OC` (stereo not shown) [Example 312, 1-[2-(5-{1-[(6,7-dimethoxy-2-methylquinazolin-4-yl)amino]ethyl}thiophen-2-yl)benzyl]azetidin-3-ol] was run?
Answer: > 20 µM

Question: And the pIC50 [2]?
Answer: 7.18

Question: What does the source list for `COc1cc2nc(C)nc(NC(C)c3ccc(-c4ccccc4CN4CC5(CNC(=O)N5)C4)s3)c2cc1OC` (stereo not shown) [Example 313, 2-[2-(5-{1-[(6,7-dimethoxy-2-methylquinazolin-4-yl)amino]ethyl}thiophen-2-yl)benzyl]-2,5,7-triazaspiro[3.4]octan-6-one]?
Answer: IC50 [1]: > 20 µM; pIC50 [2]: 6.79

Question: `COc1cc2nc(C)nc(NC(C)c3ccc(-c4ccc(F)cc4CNC(=O)[C@@H]4CCCN4)s3)c2cc1OC` (stereo partly drawn) [Example 314, N-[2-(5-{1-[(6,7-dimethoxy-2-methylquinazolin-4-yl)amino]ethyl}thiophen-2-yl)-5-fluorobenzyl]-L-prolinamide] was tested. Which IC50 [1] did it give?
Answer: > 20 µM

Question: And the pIC50 [2]?
Answer: 7.06

Question: With `COc1cc2nc(C)nc(NC(C)c3ccc(-c4ccccc4CNCC(F)F)s3)c2cc1OC` (stereo not shown) [Example 315, N-{1-[5-(2-{[(2,2-difluoroethyl)amino]methyl}phenyl)thiophen-2-yl]ethyl}-6,7-dimethoxy-2-methylquinazolin-4-amine] as the compound, how does the IC50 [1] read?
Answer: > 20 µM

Question: And the pIC50 [2]?
Answer: 6.01

Question: With `COc1cc2nc(C)nc(NC(C)c3ccc(-c4ccccc4CN4CCC4)s3)c2cc1OC` (stereo not shown) [Example 317, N-[1-{5-[2-(azetidin-1-ylmethyl)phenyl]thiophen-2-yl}ethyl]-6,7-dimethoxy-2-methylquinazolin-4-amine] as the compound, how does the IC50 [1] read?
Answer: > 20 µM

Question: What about the pIC50 [2] of the same compound?
Answer: 7.20

Question: Which results are given for `COc1cc2nc(C)nc(NC(C)c3ccc(-c4ccccc4CN4CC[C@H]4CO)s3)c2cc1OC` (stereo partly drawn) [Example 318, {1-[(2S)-(5-{1-[(6,7-dimethoxy-2-methylquinazolin-4-yl)amino]ethyl}thiophen-2-yl)benzyl]azetidin-2-yl}methanol]?
Answer: IC50 [1]: > 20 µM; pIC50 [2]: 6.78
